Measured values from US10519159B2, “Antiviral aliphatic ester prodrugs of tenofovir” (Merck Sharp & Dohme Corp., priority 2016, dated 2019).
Like-named read-outs stand apart in the source and are kept apart here.

Assays:
[1] = Prodrug stability assay in bio-relevant media (FaSSIF with pancreatin), GI tract stability; format: in vitro ADME
Procedure: Prodrug Stability Assay in Bio-Relevant Media
The following assay was employed to evaluate the stability of the prodrugs in simulated gastrointestinal tract conditions. Preparation of fasted state simulated intestinal fluid (FaSSIF) using Phares SIF Powder was carried out according to protocols from Phare Drug Delivery AG (Baselland, Switzerland). For sample preparation, 10 μL stock solutions (10 mM) of prodrug substance in DMSO was added to 990 μL of 0.5 mg/mL Pancreatin solution (Fisher CAS #8049-47-6) in FaSSIF. Two samples were prepared for each compound. If the sample was a clear solution, it was directly analyzed by HPLC. If the sample was not clear, the sample was […], maintained at 37° C. and observed 5 h later. If the sample was clear, HPLC analysis was directly performed. If the sample was still not clear, the sample was diluted with 100% ACN and assayed by HPLC. All the samples were vortexed for 3 min and observed before injection. For the diluted samples, the area is multiplied by a dilution factor when the data is analyzed. The analysis was carried out with an Agilent 1100 series HPLC with autosampler. The column was a Poroshell 120 EC-C18, 4.6×50 mm, 2.7 μm. The flow rate was 1.8 mL/min, and the injection volume was 5 or 10 μL. UV detection was in the range 210-400 nm. The mobile phase consisted of solvent A (water plus 10 mM tetrabutylammonium bromide) and solvent B (acetonitrile) with a gradient of: 90% solvent A at 0 min, changing to 95% solvent B over 6 min, maintaining for 1.5 min, then reverting to 90% solvent A over 1.6 min. The HPLC peak area of the prodrug at 5 h was divided by the HPLC peak area of the prodrug at 0 h, to generate the % claimed parent ratio, which is summarized in Table 1 for gastrointestinal (GI) Tract stability.

HIV-1 (H9/IIIB strain) = experiment: Multiple round HIV-1 infection assay (Viking assay) in MT4-GFP cells; format: cell-based
Procedure: Assessing Antiviral Potency in a Multiple Round HIV-1 Infection Assay (Viking Assay)
The antiviral activity of the tenofovir prodrugs of the Examples herein was assessed in an assay that measures the rate of replication of HIV in cell culture, termed the Viking assay (Viral KINetics in Green cells) and performed as follows. HIV-1 replication was monitored using MT4-gag-GFP clone D3 (hereafter designated MT4-GFP), which are MT-4 cells modified to harbor a GFP reporter gene, the expression of which is dependent on the HIV-1 expressed proteins tat and rev. Productive infection of an MT4-GFP cell with HIV-1 results in GFP expression approximately 24 h post-infection. MT4-GFP cells were maintained at 37° C./5% CO2/90% relative humidity in RPMI 1640 supplemented with 10% fetal bovine serum, 100 U/ml penicillin/streptomycin, and 400 μg/ml G418 to maintain the reporter gene. For infections, MT4-GFP cells were placed in the same medium lacking G418 and infected overnight with HIV-1 (H9/IIIB strain) virus at an approximate multiplicity of infection of 0.01 in the same incubation conditions. Cells were then washed and re-suspended in either RPMI 1640 supplemented with 10% or 50% normal human serum (NHS) at 1.6×10^5 cells/mL (10% NHS or 50% NHS, respectively). Compound plates were prepared by dispensing compounds dissolved in DMSO into wells of 384 well poly-D-lysine-coated plates (0.2 μl/well) using an ECHO acoustic dispenser. Each compound was tested in a 10-point serial 3-fold dilution (typical final concentrations: 8.4 μM-0.42 nM). Controls included no inhibitor (DMSO only) and a combination of three antiviral agents (efavirenz, indinavir, an in-house integrase strand transfer inhibitor at final concentrations of 4 μM each). Cells were added (50 μL/well) to compound plates and the infected cells were maintained at 37° C./5% CO2/90% relative humidity.
Infected cells were quantified at two time points, ˜48 h and ˜72 h post-infection, by counting the number of green cells in each well using an Acumen eX3 scanner. The increase in the number of green cells over ˜24 h period gives the reproductive ratio, R0, which is typically 5-15 and has been shown experimentally to be in logarithmic phase (data not shown). Inhibition of R0 is calculated for each well, and IC50s determined by non-linear 4-parameter curve fitting.

[2] = Table 2, L-Ala comparison compounds, % parent at 5 h vs 0 h, pancreatin in FaSSIF
[3] = Human immunodeficiency virus 1, IIIB, Table 2, L-Ala comparison compounds, MT4-GFP cells, HIV-1 H9/IIIB, 10% normal human serum, read-out: Viking, IC50 (10% NHS)
[4] = Human immunodeficiency virus 1, IIIB, Table 2, L-Ala comparison compounds, MT4-GFP cells, HIV-1 H9/IIIB, 50% normal human serum, read-out: Viking, IC50 (50% NHS)
[5] = Table 1, MT4-GFP cells infected with HIV-1 H9/IIIB, 10% normal human serum, read-out: Viking, IC50 (10% NHS)
[6] = Table 1, MT4-GFP cells infected with HIV-1 H9/IIIB, 50% normal human serum, read-out: Viking, IC50 (50% NHS)
[7] = Table 1, % parent: HPLC peak area of prodrug at 5 h / 0 h, 0.5 mg/mL pancreatin in FaSSIF, 37° C.

Compound | GI Tract stability [1, 2] [%] | IC50 (HIV-1 (H9/IIIB strain); [3]) [µM] | IC50 (HIV-1 (H9/IIIB strain); [4]) [µM] | IC50 (HIV-1 (H9/IIIB strain); [5]) [µM] | IC50 (HIV-1 (H9/IIIB strain); [6]) [µM] | GI Tract stability [1, 7] [%]
CCCOC(=O)[C@H](C)NP(=O)(CO[C@H](C)Cn1cnc2c(N)ncnc21)OCCC(=O)OC(C)C (single isomer, unassigned) [Compound 15A, reference compound] | 60.1 | 0.101 | 1.22 |  |  | 
CCCOC(=O)[C@H](C)NP(=O)(CO[C@H](C)Cn1cnc2c(N)ncnc21)OCC[C@H](C)C(=O)OC(C)C (single isomer, unassigned) [Compound 16A, reference compound] | 51.3 | 0.213 | 1.83 |  |  | 
CCCOC(=O)[C@H](C)NP(=O)(CO[C@H](C)Cn1cnc2c(N)ncnc21)OCc1ccc(F)cc1C(=O)OC(C)C (single isomer, unassigned) [Compound 17A, reference compound] | 20.3 | 0.035 | 2.23 |  |  | 
CCCOC(=O)C(C)(C)NP(=O)(CO[C@H](C)Cn1cnc2c(N)ncnc21)OCCC(=O)OC(C)C (single isomer, unassigned) [Example 1A] |  |  |  | 0.0232 | 0.103 | 
CCCOC(=O)C(C)(C)NP(=O)(CO[C@H](C)Cn1cnc2c(N)ncnc21)OCCC(=O)OC(C)C (single isomer, unassigned) [Example 1B] |  |  |  | 0.00509 | 0.0138 | 99.35
CC(C)OC(=O)CCOP(=O)(CO[C@H](C)Cn1cnc2c(N)ncnc21)NC(C)(C)C(=O)OC(C)C (single isomer, unassigned) [Example 2A] |  |  |  | 0.0225 | 0.0698 | 100.30
CC(C)OC(=O)CCOP(=O)(CO[C@H](C)Cn1cnc2c(N)ncnc21)NC(C)(C)C(=O)OC(C)C (single isomer, unassigned) [Example 2B] |  |  |  | 0.601 | 0.622 | 
CC(C)OC(=O)C1(COP(=O)(CO[C@H](C)Cn2cnc3c(N)ncnc32)NC(C)(C)C(=O)OC(C)C)CC1 (single isomer, unassigned) [Example 3A] |  |  |  | 0.0887 | 0.521 | 
CC(C)OC(=O)C1(COP(=O)(CO[C@H](C)Cn2cnc3c(N)ncnc32)NC(C)(C)C(=O)OC(C)C)CC1 (single isomer, unassigned) [Example 3B] |  |  |  | 0.0168 | 0.0709 | 
CCOC(=O)C1(CCOP(=O)(CO[C@H](C)Cn2cnc3c(N)ncnc32)NC(C)(C)C(=O)OC(C)C)CC1 (single isomer, unassigned) [Example 4A] |  |  |  | 0.252 | 0.756 | 
CCOC(=O)C1(CCOP(=O)(CO[C@H](C)Cn2cnc3c(N)ncnc32)NC(C)(C)C(=O)OC(C)C)CC1 (single isomer, unassigned) [Example 4B] |  |  |  | 0.00784 | 0.0227 | 99.72
CC(C)OC(=O)[C@@H](C)CCOP(=O)(CO[C@H](C)Cn1cnc2c(N)ncnc21)NC(C)(C)C(=O)OC(C)C (single isomer, unassigned) [Example 5A] |  |  |  | 0.00752 | 0.0336 | 
CC(C)OC(=O)[C@@H](C)CCOP(=O)(CO[C@H](C)Cn1cnc2c(N)ncnc21)NC(C)(C)C(=O)OC(C)C (single isomer, unassigned) [Example 5B] |  |  |  | 0.54 | 2.22 | 
CCCOC(=O)C(C)(C)NP(=O)(CO[C@H](C)Cn1cnc2c(N)ncnc21)OCC[C@H](C)C(=O)OC(C)C (single isomer, unassigned) [Example 6A] |  |  |  | 0.00554 | 0.0155 | 
